# In PubChem BioAssay (NCI):
# Where “and” joins values, the source holds several entries; their conditions need not be identical. Equal values may be shown once.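 Step 1: Grow cells in 96-well plates. Step 2: Expose to compound for 48 hours at 5 concentrations. Step 3: Interpolate endpoints linearly; if unreached, use highest concentration. Here, GI50 denotes the concentration required for 50% inhibition of growth. At the TGI there is no net growth.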
# What was measured:
# Experiment in all cases: NCI tumour cell line growth inhibition, 48 h
# [1] = test system: RXF 393 renal
# [2] = test system: HL-60(TB) leukemia
# [3] = test system: NCI/ADR-RES ovarian
# [4] = test system: HOP-62 NSCLC
# [5] = test system: IGROV1 ovarian
# [6] = test system: U251 CNS
# [7] = test system: SNB-19 CNS
# [8] = test system: M14 melanoma
# [9] = test system: HT29 colon
# [10] = test system: SW-620 colon
Structure (SMILES),GI50 [1],TGI [1],GI50 [2],TGI [2],GI50 [3],TGI [3],GI50 [4],TGI [4],GI50 [5],TGI [5],GI50 [6],TGI [6],GI50 [7],TGI [7],GI50 [8],TGI [8],GI50 [9],TGI [9],GI50 [10],TGI [10]
Cc1ccc(CS/C(=C\c2ccc([N+](=O)[O-])cc2)C(=O)c2ccc(F)cc2)cc1,13 µM,31.8 µM,2.9 µM,17.3 µM,3.28 µM,> 100 µM,11.5 µM,29.2 µM,4.49 µM,31.3 µM,1.67 µM,3.1 µM,1.98 µM,4.36 µM,3.07 µM,15.6 µM,1.78 µM,4.26 µM,1.67 µM,3.71 µM
CC1OC(n2cc(F)c(=O)[nH]c2=O)CCC1O (stereo unspecified),–,> 100 µM,–,> 100 µM,–,> 100 µM,–,> 100 µM,–,> 100 µM,–,> 100 µM,–,> 100 µM,–,> 100 µM,–,> 100 µM,–,> 100 µM
C[C@]12CC[C@H](O)CC1=CC[C@@H]1[C@@H]2CC[C@]2(C)C(c3cccnc3)=CC[C@@H]12,3.32 µM,19 µM,> 100 µM,> 100 µM,38.4 µM,> 100 µM,18.4 µM,> 100 µM,> 100 µM,> 100 µM,12.3 µM,> 100 µM,26.8 µM,> 100 µM,> 100 µM,> 100 µM,56.2 µM,> 100 µM,> 100 µM,> 100 µM
Cc1nn(CN2CCN(C)CC2)c(=S)n1/N=C/c1cccc2ccccc12,18.2 µM,34.1 µM,16.7 µM,37 µM,19.3 µM,36.3 µM,20 µM,42.3 µM,19.4 µM,55.1 µM,–,–,20.3 µM,51.6 µM,18.6 µM,39.3 µM,–,–,31.4 µM,> 100 µM
Cc1ccc2c(c1)C(=O)/C(=C/c1ncc([N+](=O)[O-])n1C)O2,–,–,1.88 µM,9.71 µM,2.24 µM,7.04 µM,5.79 µM,16.9 µM,1.96 µM,> 23.7 µM,1.93 µM,5.32 µM,2.36 µM,> 25.6 µM,1.11 µM,4.9 µM,0.491 µM,3.36 µM,0.271 µM,2.3 µM
CSc1ccc(C2=NN(C(C)=O)C(c3cc(C)cs3)C2)cc1 (stereo unspecified),56.7 µM,> 100 µM,11.8 µM,29.8 µM,24.5 µM,> 100 µM,37.3 µM,> 100 µM,29.7 µM,> 100 µM,32.8 µM,> 100 µM,37 µM,> 100 µM,–,–,24.9 µM,> 100 µM,38.2 µM,> 100 µM
Cc1ccc(-c2c3c([nH]c(=O)c2C#N)-c2cc(F)ccc2OC3)cc1,> 100 µM,> 100 µM,96.6 µM,> 100 µM,> 100 µM,> 100 µM,–,–,52.3 µM,> 100 µM,46.2 µM,> 100 µM,70.4 µM,> 100 µM,29.9 µM,> 100 µM,> 100 µM,> 100 µM,> 100 µM,> 100 µM
O=C1c2cccc(NCCN=Cc3cc(O)ccc3O)c2C(=O)c2c(NCCN=Cc3cc(O)ccc3O)cccc21,1.43 µM,2.96 µM,1.63 µM,4.19 µM,13.4 µM,35.9 µM,1.28 µM,4.06 µM,1.19 µM,4.59 µM,0.739 µM,2.56 µM,1.55 µM,5.1 µM,2.01 µM,4.59 µM,–,–,–,–
COC(=O)c1cc2c3ccccc3[nH]c2c2ncccc12,> 100 µM,> 100 µM,> 100 µM,> 100 µM,56.2 µM,> 100 µM,68.9 µM,> 100 µM,2.09 µM,> 100 µM,30.6 µM,> 100 µM,66.5 µM,> 100 µM,–,–,59.2 µM,> 100 µM,38.4 µM,> 100 µM
COc1cccc(-c2cc(=O)c3cc(N(C)C)ccc3[nH]2)c1,–,–,0.0111 µM and 0.00264 µM,0.0621 µM and 0.00853 µM,0.0144 µM and 0.00533 µM,0.0318 µM and 0.021 µM and 0.0222 µM,–,> 100 µM,0.0892 µM and 0.0423 µM and 0.0174 µM,> 100 µM,0.0182 µM and 0.00594 µM,–,–,0.825 µM and 0.843 µM,0.0234 µM and 0.00682 µM,> 100 µM,–,–,0.0173 µM and 0.00382 µM,> 100 µM
O=C(O)Cn1ccc(=O)c2ccc([N+](=O)[O-])cc21,–,–,–,> 100 µM,–,> 100 µM,–,> 100 µM,–,> 100 µM,–,> 100 µM,–,> 100 µM,–,> 100 µM,–,> 100 µM,–,> 100 µM
COc1cc(/C=C/c2cc(/C=C/c3ccc(O)c(OC)c3)n(-c3ccccc3)n2)ccc1O,0.258 µM,0.888 µM,0.271 µM,0.774 µM,0.0874 µM,3.85 µM,0.404 µM,1.52 µM,0.532 µM,4.02 µM,–,–,–,–,–,–,0.724 µM,4.1 µM,–,–
COc1cc2c3c(n(C)c(=O)c2cc1OC)-c1cc2c(cc1/C3=C\CCCN1C(=O)c3ccccc3C1=O)OCO2,> 40 µM,> 40 µM,–,–,> 40 µM,> 40 µM,19.2 µM,> 40 µM,–,–,12.8 µM,> 40 µM,> 40 µM,> 40 µM,> 40 µM,> 40 µM,> 40 µM,> 40 µM,13.5 µM,> 40 µM
O=C1CNCCCN2CCN(CCCNCC(=O)Nc3ccc(cc3)S(=O)(=O)c3ccc(cc3)NC(=O)CNCCCN3CCN(CCCNCC(=O)Nc4ccc(cc4)S(=O)(=O)c4ccc(cc4)N1)CC3)CC2,–,> 70.2 µM,–,–,–,> 100 µM,–,> 63.7 µM,–,> 69.7 µM,–,> 61.8 µM,–,> 100 µM,–,> 100 µM,–,> 67.5 µM,–,> 100 µM
CC(=O)Nc1ccccc1Sc1ccccc1,–,> 100 µM,–,> 100 µM,–,–,–,> 100 µM,–,> 100 µM,–,> 100 µM,–,> 100 µM,–,> 100 µM,–,> 100 µM,–,> 100 µM
N#CC1(Cc2ccc(N)cc2)c2ccccc2C=CN1C(=O)c1ccccc1 (stereo unspecified),–,> 100 µM,–,44 µM,–,–,–,> 100 µM,–,> 100 µM,–,> 100 µM,–,> 100 µM,–,> 100 µM,–,> 100 µM,–,> 100 µM
